Reference: the supplement of paper PMC10733146

Key:
Test in all cases: viability relative to DMSO control (fraction); higher = less drug effect (more viable cells)
Conditions in all cases: 48 h
[1] = system: primary AML patient cells (S055)
Outline: (§1)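 Viability was quantified by CellTiter-Glo luminescence and related to the median of 16 inner DMSO wells. Before that, primary mononuclear tumour cells, fresh or cryopreserved and Ficoll-isolated from blood or bone marrow or prepared from processed lymph node, were plated at 4 × 10^4 cells per well in 384-well plates containing pre-plated compounds at five concentrations, one well each. Plates were incubated in RPMI-1640 with penicillin/streptomycin, L-glutamine and human serum at 37 °C and 5% CO2 for 48 h.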

[2] = system: primary AML patient cells (S019)
Outline: as §1

[3] = system: primary AML patient cells (S002)
Outline: as §1

[4] = system: primary AML patient cells (S060)
Outline: as §1

[5] = system: primary FL patient cells (S022)
Outline: as §1

[6] = system: primary AML patient cells (S025)
Outline: as §1

[7] = system: primary AML patient cells (S021)
Outline: as §1

[8] = system: primary ALL patient cells (S048)
Outline: as §1

[9] = system: primary AML patient cells (S017)
Outline: as §1

[10] = system: primary AML patient cells (S071)
Outline: as §1

[11] = system: primary AML patient cells (S079)
Outline: as §1

[12] = system: primary AML patient cells (S091)
Outline: as §1

[13] = system: primary FL patient cells (S087)
Outline: as §1

[14] = system: primary AML patient cells (S072)
Outline: as §1

[15] = system: primary B-PLL patient cells (S016)
Outline: as §1

[16] = system: primary AML patient cells (S009)
Outline: as §1

[17] = system: primary DLBCL patient cells (S082)
Outline: as §1

[18] = system: primary ALL patient cells (S088)
Outline: as §1

[19] = system: primary MCL patient cells (S053)
Outline: as §1

[20] = system: primary AML patient cells (S089)
Outline: as §1

With Nc1nc(=S)c2[nH]cnc2[nH]1 [Thioguanin] the viability ([1]; 0.024 µM) was 0.964, the viability ([1]; 0.12 µM) was 0.867 and the viability ([1]; 0.6 µM) was 0.49. It also gave a viability ([1]; 3 µM) of 0.19, a viability ([1]; 15 µM) of 0.114 and a viability ([2]; 0.024 µM) of 1.04. It also gave a viability ([2]; 0.12 µM) of 1.18, a viability ([2]; 0.6 µM) of 0.65 and a viability ([2]; 3 µM) of 0.497. It also gave a viability ([2]; 15 µM) of 0.57, a viability ([3]; 0.024 µM) of 1.1 and a viability ([3]; 0.12 µM) of 1.09. The viability ([3]; 0.6 µM) was 0.949, the viability ([3]; 3 µM) was 0.66 and the viability ([3]; 15 µM) was 0.446. The viability ([4]; 0.024 µM) was 1.03, the viability ([4]; 0.12 µM) was 0.969 and the viability ([4]; 0.6 µM) was 0.697. The viability ([4]; 3 µM) was 0.643, the viability ([4]; 15 µM) was 0.424 and the viability ([5]; 0.024 µM) was 0.991. The viability ([5]; 0.12 µM) was 0.955, the viability ([5]; 0.6 µM) was 0.835 and the viability ([5]; 3 µM) was 0.622. The viability ([5]; 15 µM) was 0.483, the viability ([6]; 0.024 µM) was 0.945 and the viability ([6]; 0.12 µM) was 0.751. It also gave a viability ([6]; 0.6 µM) of 0.615, a viability ([6]; 3 µM) of 0.279 and a viability ([6]; 15 µM) of 0.152. For the same compound, the viability ([7]; 0.024 µM) was 1.11, the viability ([7]; 0.12 µM) was 0.984 and the viability ([7]; 0.6 µM) was 0.918. For the same compound, the viability ([7]; 3 µM) was 0.672, the viability ([7]; 15 µM) was 0.435 and the viability ([8]; 0.024 µM) was 0.949. It also gave a viability ([8]; 0.12 µM) of 0.906, a viability ([8]; 0.6 µM) of 0.664 and a viability ([8]; 3 µM) of 0.37. It also gave a viability ([8]; 15 µM) of 0.17, a viability ([9]; 0.024 µM) of 0.97 and a viability ([9]; 0.12 µM) of 1.05. It also gave a viability ([9]; 0.6 µM) of 0.785, a viability ([9]; 3 µM) of 0.561 and a viability ([9]; 15 µM) of 0.38. It also gave a viability ([10]; 0.024 µM) of 1.02, a viability ([10]; 0.12 µM) of 0.879 and a viability ([10]; 0.6 µM) of 0.577. It also gave a viability ([10]; 3 µM) of 0.403, a viability ([10]; 15 µM) of 0.228 and a viability ([11]; 0.024 µM) of 1.02. For the same compound, the viability ([11]; 0.12 µM) was 0.821, the viability ([11]; 0.6 µM) was 0.575 and the viability ([11]; 3 µM) was 0.453. For the same compound, the viability ([11]; 15 µM) was 0.254, the viability ([12]; 0.024 µM) was 0.859 and the viability ([12]; 0.12 µM) was 0.817. For the same compound, the viability ([12]; 0.6 µM) was 0.919, the viability ([12]; 3 µM) was 0.6 and the viability ([12]; 15 µM) was 0.254. It also gave a viability ([13]; 0.024 µM) of 0.998, a viability ([13]; 0.12 µM) of 0.952 and a viability ([13]; 0.6 µM) of 0.804. It also gave a viability ([13]; 3 µM) of 0.688, a viability ([13]; 15 µM) of 0.645 and a viability ([14]; 0.024 µM) of 1.02. It also gave a viability ([14]; 0.12 µM) of 1.01, a viability ([14]; 0.6 µM) of 0.768 and a viability ([14]; 3 µM) of 0.538. For the same compound, the viability ([14]; 15 µM) was 0.387, the viability ([15]; 0.024 µM) was 0.919 and the viability ([15]; 0.12 µM) was 0.71. For the same compound, the viability ([15]; 0.6 µM) was 0.403, the viability ([15]; 3 µM) was 0.23 and the viability ([15]; 15 µM) was 0.212. For the same compound, the viability ([16]; 0.024 µM) was 1.14, the viability ([16]; 0.12 µM) was 1.09 and the viability ([16]; 0.6 µM) was 1.07. The viability ([16]; 3 µM) was 0.696, the viability ([16]; 15 µM) was 0.489 and the viability ([17]; 0.024 µM) was 1.01. It also gave a viability ([17]; 0.12 µM) of 0.972, a viability ([17]; 0.6 µM) of 0.844 and a viability ([17]; 3 µM) of 0.602. It also gave a viability ([17]; 15 µM) of 0.457, a viability ([18]; 0.024 µM) of 1.03 and a viability ([18]; 0.12 µM) of 1.08. For the same compound, the viability ([18]; 0.6 µM) was 0.904, the viability ([18]; 3 µM) was 0.565 and the viability ([18]; 15 µM) was 0.281. It also gave a viability ([19]; 0.024 µM) of 0.893, a viability ([19]; 0.12 µM) of 0.699 and a viability ([19]; 0.6 µM) of 0.45. The viability ([19]; 3 µM) was 0.25, the viability ([19]; 15 µM) was 0.173 and the viability ([20]; 0.024 µM) was 0.765. The viability ([20]; 0.12 µM) was 0.607, the viability ([20]; 0.6 µM) was 0.648 and the viability ([20]; 3 µM) was 0.313. It also gave a viability ([20]; 15 µM) of 0.0421.
